From US9149475B2, “Protein kinase C inhibitors and uses thereof” (Rigel Pharmaceuticals, Inc., priority 2009, dated 2015) come the findings set out here.

The subject of one assay is Human primary T cells. The experiment in a line: IL-2 ELISA, human primary T cell, anti-CD3+CD28+ (whole cell assay). The class given is cell-based. The note with it: Homo sapiens, T-cell, 24 h, human primary T cells stimulated with anti-CD3 + anti-CD28, 24 hours. The method, boiled down: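 IL-2 secreted over 24 h at 37° C was quantified by ELISA after plate-bound αCD3 (1 μg/ml) and αCD28 (5 μg/ml) stimulation, or PMA (0.5 ng/ml) with ionomycin (0.1 μM) as counter-screen. Cells were IL-2-starved primary human T cells, expanded from volunteer PBMC and exposed to compound for 1 hr beforehand.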
Regarding `CN1C(C)(C)CC(Nc2nc(Nc3ccc(OCCN4CCNC4=O)c(OC(F)F)c3)ncc2F)CC1(C)C` [Compound I-51, 1-(2-(4-(4-(1,2,2,6,6-pentamethylpiperidin-4-ylamino)-5-fluoropyrimidin-2-ylamino)-2-(difluoromethoxy)phenoxy)ethyl)imidazolidin-2-one], the IC50 lay within 500 to 1000 nM.
On the same count and under the same terms, in the case of `CC1(C)CC(Nc2nc(Nc3ccc(OC4CCN(S(C)(=O)=O)CC4)c(OC(F)F)c3)ncc2F)CC(C)(C)N1` [III-21, N2-(3-(difluoromethoxy)-4-(1-(methylsulfonyl)piperidin-4-yloxy)phenyl)-5-fluoro-N4-(2,2,6,6-tetramethylpiperidin-4-yl)pyrimidine-2,4-diamine] it was 500 to 1000 nM; in that of `CC(C)N1CCC(Oc2ccc(Nc3ncc(F)c(NC4CC(C)(C)N(C)C(C)(C)C4)n3)cc2C#N)CC1` [Compound I-151, 2-(1-isopropylpiperidin-4-yloxy)-5-(4-(1,2,2,6,6-pentamethylpiperidin-4-ylamino)-5-fluoropyrimidin-2-ylamino)benzonitrile], 500 to 1000 nM; in that of `CN1C(C)(C)CC(Nc2nc(Nc3cc(OC4COC4)cc(-c4nnnn4C)c3)ncc2F)CC1(C)C` [III-146, 5-fluoro-N2-(3-(1-methyl-1H-tetrazol-5-yl)-5-(oxetan-3-yloxy)phenyl)-N4-(1,2,2,6,6-pentamethylpiperidin-4-yl)pyrimidine-2,4-diamine], 250 to 500 nM.
On to `CC(C)Oc1ccc(Nc2ncc(F)c(NC3CC(C)(C)NC(C)(C)C3)n2)cc1-c1nnnn1C` [III-122, 5-fluoro-N2-(4-isopropoxy-3-(1-methyl-1H-tetrazol-5-yl)phenyl)-N4-(2,2,6,6-tetramethylpiperidin-4-yl)pyrimidine-2,4-diamine], for which the IC50 is below 250 nM.
Consider `CC1(C)CC(Nc2nc(Nc3ccc(OCCN4CCOCC4)c(OC(F)F)c3)ncc2F)CC(C)(C)N1` [Compound I-120, N2-(4-(2-morpholinoethoxy)-3-(difluoromethoxy)phenyl)-5-fluoro-N4-(2,2,6,6-tetramethylpiperidin-4-yl)pyrimidine-2,4-diamine], for which the IC50 is above 1000 nM.
With `CC(=O)N1CCC(Oc2ccc(Nc3ncc(F)c(NC4CC(C)(C)NC(C)(C)C4)n3)cc2OC(F)F)CC1` [III-44, 1-(4-(2-(difluoromethoxy)-4-(5-fluoro-4-(2,2,6,6-tetramethylpiperidin-4-ylamino)pyrimidin-2-ylamino)phenoxy)piperidin-1-yl)ethanone], the IC50 was in the range of 500 to 1000 nM.
For the compound `CC(=O)N1CCCC(Oc2c(F)cc(Nc3ncc(F)c(NC4CC(C)(C)NC(C)(C)C4)n3)cc2F)CC1` (centres unmarked) [III-82, 1-(4-(2,6-difluoro-4-(5-fluoro-4-(2,2,6,6-tetramethylpiperidin-4-ylamino)pyrimidin-2-ylamino)phenoxy)azepan-1-yl)ethanone], the concentration for half-maximal inhibition (IC50) was above 1000 nM.
For the compound `CC1(C)CC(Nc2nc(Nc3cccc(-n4cncn4)c3)ncc2F)CC(C)(C)N1` [Compound I-19, N2-(3-(1H-1,2,4-triazol-1-yl)phenyl)-5-fluoro-N4-(2,2,6,6-tetramethylpiperidin-4-yl)pyrimidine-2,4-diamine], the IC50 lay within 500 to 1000 nM.
As to `CC(=O)N1CCC(Oc2ccc(Nc3ncc(F)c(NC4CC(C)(C)NC(C)(C)C4)n3)cc2F)CC1` [III-13, 1-(4-(2-fluoro-4-(5-fluoro-4-(2,2,6,6-tetramethylpiperidin-4-ylamino)pyrimidin-2-ylamino)phenoxy)piperidin-1-yl)ethanone], the IC50 was above 1000 nM.
For `CN1C(C)(C)CC(Nc2nc(Nc3cc(OCCCn4cccc4)cc(C(F)(F)F)c3)ncc2F)CC1(C)C` [Compound I-49, N2-(3-(3-(1H-pyrrol-1-yl)propoxy)-5-(trifluoromethyl)phenyl)-5-fluoro-N4-(1,2,2,6,6-pentamethylpiperidin-4-yl)pyrimidine-2,4-diamine], the IC50 was in the range of 500 to 1000 nM.
`CN1C(C)(C)CC(Nc2nc(Nc3cccc(-c4nn[nH]n4)c3)ncc2F)CC1(C)C` [III-68, N2-(3-(2H-tetrazol-5-yl)phenyl)-5-fluoro-N4-(1,2,2,6,6-pentamethylpiperidin-4-yl)pyrimidine-2,4-diamine]: the IC50 was above 1000 nM.
Still for that read-out and setting: for `CC(C)Oc1ncc(Nc2ncc(F)c(NC3CC(C)(C)NC(C)(C)C3)n2)cc1-c1nnnn1C(C)C` [Compound I-132, 5-fluoro-N2-(6-isopropoxy-5-(1-isopropyl-1H-tetrazol-5-yl)pyridin-3-yl)-N4-(2,2,6,6-tetramethylpiperidin-4-yl)pyrimidine-2,4-diamine] the value was 500 to 1000 nM.
On to `Cc1ccn(-c2cccc(Nc3ncc(F)c(NC4CC(C)(C)NC(C)(C)C4)n3)c2)n1` [Compound I-7, 5-fluoro-N2-(3-(3-methyl-1H-pyrazol-1-yl)phenyl)-N4-(2,2,6,6-tetramethylpiperidin-4-yl)pyrimidine-2,4-diamine], for which the IC50 was above 1000 nM.
On the same count and under the same terms, for `CN1C(C)(C)CC(Nc2nc(Nc3ccc(OCCn4ccnn4)c(OC(F)F)c3)ncc2C#N)CC1(C)C` [Compound I-55, 4-(1,2,2,6,6-pentamethylpiperidin-4-ylamino)-2-(4-(2-(1H-1,2,3-triazol-1-yl)ethoxy)-3-(difluoromethoxy)phenylamino)pyrimidine-5-carbonitrile] the value was 250 to 500 nM; for `CC1(C)CC(Nc2nc(Nc3ccc(OC4CCNCC4)c(OC(F)F)c3)ncc2F)CC(C)(C)N1` [III-28, N2-(3-(difluoromethoxy)-4-(piperidin-4-yloxy)phenyl)-5-fluoro-N4-(2,2,6,6-tetramethylpiperidin-4-yl)pyrimidine-2,4-diamine], above 1000 nM.

The assay is the same for the next values; noted with them: human primary T cells stimulated with anti-CD3 + anti-CD28, 24 hours.
Consider `CC1(C)CC(Nc2nc(Nc3cccc(-c4nnnn4C4CC4)c3)ncc2C#N)CC(C)(C)N1` [Compound I-95, 5-Cyano-N2-{3-[1-N-cyclopropyl-(tetrazol-5-yl)]}phenyl-N4-(2,2,6,6-tetramethylpiperidin-4-yl)-2,4-pyrimidinediamine], for which the IC50 fell in the range of 250 to 500 nM.
For the compound `CN1C(C)(C)CC(Nc2nc(Nc3cccc(-c4nnnn4CCF)c3)ncc2C#N)CC1(C)C` [Compound I-96, 5-Cyano-N2-{3-[1-N-(2-fluoroethyl)-(tetrazol-5-yl)]}phenyl-N4-(1,2,2,6,6-pentamethylpiperidin-4-yl)-2,4-pyrimidinediamine], the half-maximal inhibitory concentration (IC50) was below 250 nM.
Turning to `CN1C(C)(C)CC(Nc2nc(Nc3cccc(-n4nnnc4SCC(F)(F)F)c3)ncc2C#N)CC1(C)C` [Compound I-78, 5-cyano-N4-(1,2,2,6,6-pentamethylpiperidin-4-yl)-N2-{3-[5-(2,2,2-trifluoroethyl)thio]-1H-tetrazol-1-yl}phenyl-2,4-pyrimidinediamine], the IC50 was below 250 nM.
For the compound `CCOc1ccc(Nc2ncc(C(N)=O)c(NC3CC(C)(C)NC(C)(C)C3)n2)cc1-n1nnnc1CC` [Compound I-68, 5-aminocarbonyl-N2-[4-ethoxy-3-(5-ethyl-1H-tetrazol-1-yl)]phenyl-N4-(2,2,6,6-tetramethylpiperidin-4-yl)-2,4-pyrimidinediamine], the IC50 is above 1000 nM.
